Results on seven compounds are retold here after publication PMC8348070, “Structure-Based Designing, Solvent Less Synthesis of 1,2,3,4-Tetrahydropyrimidine-5-carboxylate Derivatives: A Combined In Vitro and In Silico Screening Approach” (Molecules, 2021).

Converted amounts (≈) assume the structure as drawn.

Series [1] in a line: MTT cytotoxicity (cell viability) assay. In kind it is cell-based, human. Particulars: human, HepG2 cell line, 48 h, Figure 6. As to the method: (§1) Cells were treated with extracts/compound dissolved in DMSO with a final DMSO concentration of 0.05%. DMSO treated cells were used as control in all the experiments. Cell viability was determined by MTT assay as described by us previously. Briefly, HepG2 cells were treated with different concentrations of compounds for 48 h. […] Subsequently, 150 μL DMSO was added to dissolve formazan crystals and absorbance was measured at 490 nm in a microplate reader (Thermo Scientific, Waltham, MA, USA). The percentage of cell viability was calculated.

The test system of another series is HepG2 cells. In words: MTT cytotoxicity (cell viability) assay. Type of series: cell-based, human. To be noted: Homo sapiens, HepG2, read-out: IC50 as anti-cancer agents. The protocol: as §1
The nature of series [2]: Antioxidant free radical scavenging activity using DPPH. To be noted: Figure 7 and text. Type of series: biochemical. (In general: The DPPH test is a chemical assay of radical scavenging.)
Protocol: The potential of synthesized compounds to scavenge the free radicals were assessed by using diphenylpicrylhydrazyl (DPPH) as free radical [48].
These stock solutions were then subjected to prepare their dilutions up to 250 µg, 200 µg, 150 µg, 100 µg, 50 µg and 25 µg respectively. DPPH solution of 4% was prepared by mixing 0.004 g of DPPH in 100 ml methanol (commercial grade). Ascorbic acid was used as control and its solution was prepared by mixing 0.0017612 g into 100 ml of water having 100 µg concentration.
In test tubes 1 mL of sample from each diluted solution and 2 mL of DPPH solution was added. In the same way, 1 mL of the ascorbic acid was added along with 2 ml of DPPH as control and allowed to stand overnight.

Take `CCOC(=O)C1=C(C)NC(=O)NC1c1ccccc1F` (stereo not drawn) [Compound 5a, 4-(2-fluorophenyl)-6-methyl-2oxo-1,2,3,4-tetrahydropyrimidine-5-carboxylate]: the melting point lay in the range of 230 to 233 °C. Further, the IC50 at 48 h in series [1] was 16 µg/mL (≈ 57.5 µM).

For `CCOC(=O)C1=C(C)NC(=S)NC1c1ccc(F)cc1` (stereo not drawn) [Compound 5f, ethyl 4-(4-fluorophenyl)-6-methyl-2thioxo-1,2,3,4-tetrahydropyrimidine-5-carboxylate], the melting point lay in the range of 233 to 235 °C. Further, the IC50 at 48 h in series [1] (HepG2 cells) stood at 18.7 µg/mL (≈ 63.5 µM).

Turning to `CCOC(=O)C1=C(C)NC(=O)NC1c1cccc(F)c1` (stereo not drawn) [Compound 5b, ethyl 4-(3-fluorophenyl)-6-methyl-2oxo-1,2,3,4-tetrahydropyrimidine-5-carboxylate], the melting point was in the range of 210 to 213 °C. Moreover, in series [1] (HepG2 cells), 11.3 µg/mL (≈ 40.5 µM) corresponded to half-maximal inhibition (IC50 at 48 h).

As to `CCOC(=O)C1=C(C)NC(=S)NC1c1cccc(F)c1` (stereo not drawn) [Compound 5e, ethyl 4-(3-fluorophenyl)-6-methyl-2-thioxo-1,2,3,4-tetrahydropyrimidine-5-carboxylate], the half-maximal inhibitory concentration (IC50) at 48 h in series [1] came out at 5.35 µg/mL (≈ 18.2 µM). Moreover, the IC50 with HepG2 cells was found to be 5.35 µg/mL (≈ 18.2 µM).

With `CCOC(=O)C1=C(C)NC(=O)NC1c1ccc(F)cc1` (stereo not drawn) [Compound 5c, ethyl 4-(4-fluorophenyl)-6-methyl-2oxo-1,2,3,4-tetrahydropyrimidine-5-carboxylate], half-maximal inhibition in series [1] (IC50 at 48 h) was put at 7.29 µg/mL (≈ 26.2 µM). Moreover, the “IC50 as anti-oxidant agents” value in series [2] is 6.261 µM.

`CCOC(=O)C1=C(C)NC(=S)NC1c1ccccc1F` (stereo not drawn) [Compound 5d, ethyl 4-(2-fluorophenyl)-6-methyl-2-thioxo-1,2,3,4-tetrahydropyrimidine-5-carboxylate]: the IC50 at 48 h in series [1] came to 25.5 µg/mL (≈ 86.7 µM).

With `CCOC(=O)C1=C(C)NC(=S)NC1c1cccc(Cl)c1` (stereo not drawn) [Compound 5h, ethyl 4-(3-chlorophenyl)-6-methyl-2thioxo-1,2,3,4-tetrahydropyrimidine-5-carboxylate], in series [1], half-maximal inhibition (IC50 at 48 h) was put at 13 µg/mL (≈ 41.7 µM).

A word on the IC50: it is the midpoint of a concentration-inhibition curve. By melting point is commonly meant the temperature, or range, at which the solid turns liquid.
